One assay concerns E. Coli ATCC 25922. Put plainly: Test for evaluating antibacterial activity (E. coli), broth microdilution MIC. The class given is cell-based. The note with it: Escherichia coli, ATCC25922; 35° C., 18 hours, cation-adjusted Mueller-Hinton medium. Summed up: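 Broth microdilution per modified CLSI method in cation-adjusted Mueller-Hinton medium. Inoculum from overnight heart infusion agar growth, McFarland 0.5 suspension diluted 10-fold; incubation 35° C for 18 hours. MIC taken as lowest drug concentration with no visible growth.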

For assay [1], the target named is T1, E. coli DNA gyrase (Escherichia coli, UniProt P0AES6).
T1 construct: made in house; host or cells: E. coli BL21 (DE3)
Put plainly: Test for evaluating the activity of inhibiting E. coli DNA gyrase enzyme (Method 1, supercoiling, Inspiralis enzyme). The class given is biochemical. As to the method: Test Example 1-1 Test for Evaluating the Activity of Inhibiting E. coli DNA Gyrase Enzyme (Method 1)
The enzymatic activity of E. coli DNA gyrase was measured by a method comprising reacting DNA gyrase and its substrate, relaxed pBR322 (Inspiralis), in the presence of ATP and detecting the post-reaction supercoiled pBR322/relaxed pBR322 ratio with H19 (Profoldin).
Specifically, to 1 ng/μL of relaxed pBR322, E. coli DNA gyrase enzyme (Inspiralis) was added at a final concentration of 0.006 U/μL and the mixture was incubated for 60 minutes at room temperature. This reaction was carried out in 20 mmol/L tris-HCl buffered solution (pH 8.0) comprising 0.5 mmol/L ATP, 0.005% bridge 35, 35 mmol/L ammonium acetate, 8 mmol/L magnesium chloride, 4.6% glycerol, and 1 mmol/L dithiothreitol. To the reaction mixture, H19 was added to bring the reaction to an end; thereafter, the supercoiled pBR322/relaxed pBR322 ratio was detected at excitation wavelength/emission wavelength=485 nm/535 nm. An inhibition curve was obtained by allowing the analyte compound to be present at varying concentrations during the reaction described above. […] The test results of interest are shown in [Table 20-1] and [Table 20-2].

Assay [2] concerns the target T1, E. coli DNA gyrase. Put plainly: Test for evaluating the activity of inhibiting E. coli DNA gyrase enzyme (Method 2, supercoiling, recombinant gyrA/gyrB complex). The note with it: Method 2; read-out: E. Coli Gyrase supercoiling IC50. The class given is biochemical. Put shortly:
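Recombinant E. coli gyrA/gyrB complex (His-tagged, BL21(DE3)-expressed, Ni-NTA purified; 0.135 nmol/mL final) supercoiled relaxed pBR322 (1 ng/μL) with 0.5 mmol/L ATP in pH 8.0 Tris buffer, 60 min at room temperature. H19 stopped the reaction; supercoiled/relaxed ratio read at 485/535 nm, inhibition curves built from varying compound concentrations.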

In assay [3] the test system is N. gonorrhoeae ATCC 49226. Put plainly: Test for evaluating antibacterial activity (N. gonorrhoeae), broth microdilution MIC. It is filed as cell-based. To be noted: Neisseria gonorrhoeae, ATCC49226; 35° C., 24 hours, gonococcal broth. Summed up: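 Broth microdilution in gonococcal broth with 1% supplement C, inoculum from overnight chocolate II agar culture at McFarland 0.5 diluted 5-fold.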
(In general: In broth dilution the organism is exposed to a series of concentrations in liquid medium.)

[4] abbreviates: Method 1, read-out: E. Coli Gyrase supercoiling IC50.

Our source for the MIC, IC50 and inhibition values is patent publication US20210070747A1, “2(1H)-QUINOLINONE DERIVATIVE” (priority 2017, published 2021).

SMILES strings stand for the structures. pIC50: −log10 of the molar value. Values after ≈ are worked out from the molar mass of the structure shown.

In the assay on E. Coli ATCC 25922, `CNc1cccc2cc(C(=O)NC3CCN(c4ncc(C(=O)O)s4)C3)c(=O)[nH]c12` (stereo not shown) [Example 9, 2-(3-{[8-(methylamino)-2-oxo-1,2-dihydroquinoline-3-carbonyl]amino}pyrrolidine-1-yl)-1,3-thiazole-5-carboxylic acid] registered an MIC above 64 µg/mL. In addition, the pIC50 on E. coli DNA gyrase [1] (setting [4]) was 7.29.

As to `CNc1cccc2cc(C(=O)NC3CN(c4ncc(C(=O)O)s4)C3)c(=O)[nH]c12` [Example 10, 2-(3-{[8-(methylamino)-2-oxo-1,2-dihydroquinoline-3-carbonyl]amino}azetidine-1-yl)-1,3-thiazole-5-carboxylic acid], the MIC with E. Coli ATCC 25922 is above 64 µg/mL. The pIC50 at E. coli DNA gyrase [1] (setting [4]) is 6.34.

In the assay on E. Coli ATCC 25922, `CNc1cccc2cc(C(=O)Nc3ccccc3)c(=O)[nH]c12` [Example 11, 8-(methylamino)-2-oxo-N-phenyl-1,2-dihydroquinoline-3-carboxamide] gave an MIC above 64 µg/mL. At E. coli DNA gyrase [1] (setting [4]), the pIC50 was 6.61.

On to `CNc1cccc2cc(C(=O)Nc3cncnc3)c(=O)[nH]c12` [Example 12, 8-(methylamino)-2-oxo-N-(pyrimidine-5-yl)-1,2-dihydroquinoline-3-carboxamide], for which, in the assay with E. Coli ATCC 25922, the MIC was above 64 µg/mL. Also, the pIC50 on E. coli DNA gyrase [1] (setting [4]) was 7.68.

For the compound `CNc1cccc2cc(C(=O)N[C@@H](Cc3c[nH]cn3)C(=O)O)c(=O)[nH]c12` [Example 13, N-[8-(methylamino)-2-oxo-1,2-dihydroquinoline-3-carbonyl]-L-histidine-trifluoroacetate], the pIC50 on E. coli DNA gyrase [1] (setting [4]) is 4.50.

The compound `CNc1cccc2cc(C(=O)Nc3cccnc3)c(=O)[nH]c12` [Example 15, 8-(methylamino)-2-oxo-N-(pyridine-3-yl)-1,2-dihydroquinoline-3-carboxamide] gave an MIC in the assay on E. Coli ATCC 25922 above 64 µg/mL. The pIC50 at E. coli DNA gyrase [1] (setting [4]) is 7.45.

`CNc1cccc2cc(C(=O)Nc3cnc(C(=O)O)nc3)c(=O)[nH]c12` [Example 20, 5-{[8-(methylamino)-2-oxo-1,2-dihydroquinoline-3-carbonyl]amino}pyrimidine-2-carboxylic acid] gave an MIC in the assay with E. Coli ATCC 25922 above 16 µg/mL. Further, the pIC50 on E. coli DNA gyrase [1] (setting [4]) was 8.92.

Turning to `CNc1cccc2cc(C(=O)NCc3ccccn3)c(=O)[nH]c12` [Example 21, 8-(methylamino)-2-oxo-N-[(pyridine-2-yl)methyl]-1,2-dihydroquinoline-3-carboxamide], the inhibition at 3 µM at E. coli DNA gyrase [1] (Method 1, at 3000 nM) worked out at 44%.

As to `CNc1cccc2cc(C(=O)NC3CCN(c4nccs4)C3)c(=O)[nH]c12` (stereo not shown) [Example 23, 8-(methylamino)-2-oxo-N-[1-(1,3-thiazole-2-yl)pyrrolidine-3-yl]-1,2-dihydroquinoline-3-carboxamide], the MIC in the assay with E. Coli ATCC 25922 is above 4 µg/mL. The pIC50 at E. coli DNA gyrase [1] (setting [4]) was 6.16.

In turn, `CNc1cccc2cc(C(=O)Nc3cnc(NC(=O)OC(C)(C)C)s3)c(=O)[nH]c12` [Example 24, tert-butyl(5-{[8-(methylamino)-2-oxo-1,2-dihydroquinoline-3-carbonyl]amino}-1,3-thiazole-2-yl)carbamate] registered an MIC against E. Coli ATCC 25922 above 32 µg/mL. For the same compound, on E. coli DNA gyrase [1] (setting [4]), the pIC50 is 6.19.

In turn, `CNc1cccc2cc(C(=O)Nc3cnc(N)s3)c(=O)[nH]c12.Cl` [Example 25, N-(2-Amino-1,3-thiazol-5-yl)-8-(methylamino)-2-oxo-1,2-dihydroquinoline-3-carboxamide-hydrochloride] registered an MIC in the assay on E. Coli ATCC 25922 above 16 µg/mL. The same compound gave a pIC50 on E. coli DNA gyrase [1] of 7.18.

`CNc1cccc2cc(C(=O)Nc3ccc(C(=O)NCCN4CCOCC4)cc3)c(=O)[nH]c12` [Example 26, 8-(methylamino)-N-(4-{[2-(morpholine-4-yl)ethyl]carbamoyl}phenyl)-2-oxo-1,2-dihydroquinoline-3-carboxamide] gave an MIC against E. Coli ATCC 25922 above 32 µg/mL. Further, the negative logarithm of the IC50 (pIC50) at E. coli DNA gyrase [1] (setting [4]) was 7.75.

In turn, `CNc1cccc2cc(C(=O)NCc3csc(NC(=O)OC(C)(C)C)n3)c(=O)[nH]c12` [Example 27, tert-butyl[4-({[8-(methylamino)-2-oxo-1,2-dihydroquinoline-3-carbonyl]amino}methyl)-1,3-thiazole-2-yl]carbamate] came in with an MIC with E. Coli ATCC 25922 above 8 µg/mL. Moreover, on E. coli DNA gyrase [1] (setting [4]), the pIC50 was 6.59.

Compound `CNc1cccc2cc(C(=O)NCCc3cccnc3)c(=O)[nH]c12` [Example 30, 8-(methylamino)-2-oxo-N-[2-(pyridine-3-yl)ethyl]-1,2-dihydroquinoline-3-carboxamide] displayed an MIC against E. Coli ATCC 25922 above 16 µg/mL. The pIC50 at E. coli DNA gyrase [1] (setting [4]) is 6.67.

In the assay with E. Coli ATCC 25922, `CNc1cccc2cc(C(=O)NCc3csc(N)n3)c(=O)[nH]c12.Cl` [Example 31, N-[(2-amino-1,3-thiazole-4-yl)methyl]-8-(methylamino)-2-oxo-1,2-dihydroquinoline-3-carboxamide-hydrochloride] came in with an MIC above 16 µg/mL. Also, the pIC50 on E. coli DNA gyrase [1] is 6.49.

Consider `CNc1cccc2cc(C(=O)Nc3cnc(N4CCC(N5CCN(CCO)CC5)CC4)nc3)c(=O)[nH]c12` [Example 42, N-(2-{4-[4-(2-hydroxyethyl)piperazine-1-yl]piperidine-1-yl}pyrimidine-5-yl)-8-(methylamino)-2-oxo-1,2-dihydroquinoline-3-carboxamide], for which the MIC against E. Coli ATCC 25922 is above 64 µg/mL. The pIC50 at E. coli DNA gyrase [1] (setting [4]) was 7.13.

With `CNc1cccc2cc(C(=O)Nc3ccc(C(=O)N4CCOCC4)cc3)c(=O)[nH]c12` [Example 43, 8-(methylamino)-N-[4-(morpholine-4-catbonyl)phenyl]-2-oxo-1,2-dihydroquinoline-3-carboxamide], the MIC against E. Coli ATCC 25922 is above 32 µg/mL. The pIC50 at E. coli DNA gyrase [1] (setting [4]) was 6.76.

The compound `CNc1cccc2cc(C(=O)Nc3ccc(C(=O)O)cc3OCCN3CCN(C)CC3)c(=O)[nH]c12.Cl` [Example 44, 4-{[8-(methylamino)-2-oxo-1,2-dihydroquinoline-3-carbonyl]amino}-3-[2-(4-methylpiperazine-1-yl)ethoxy] benzoic acid-hydrochloride] came in with an MIC with E. Coli ATCC 25922 above 16 µg/mL. On E. coli DNA gyrase [1], this compound had a pIC50 of 6.43.

On to `CNc1cccc2cc(C(=O)Nc3cnc(N4CCC(N)CC4)nc3)c(=O)[nH]c12.O=CO` [Example 45, N-[2-(4-aminopiperidine-1-yl)pyrimidine-5-yl]-8-(methylamino)-2-oxo-1,2-dihydroquinoline-3-carboxamide-formate], for which the MIC against E. Coli ATCC 25922 was above 16 µg/mL. This compound also gave a negative-log IC50 (pIC50) on E. coli DNA gyrase [1] of 6.99.

Consider `CNc1cccc2cc(C(=O)Nc3ccc(C(=O)NCCCN)cc3)c(=O)[nH]c12.Cl` [Example 46, N-{4-[(3-aminopropyl)carbamoyl]phenyl}-8-(methylamino)-2-oxo-1,2-dihydroquinoline-3-carboxamide-hydrochloride], for which, in the assay with E. Coli ATCC 25922, the MIC is above 1 µg/mL. At E. coli DNA gyrase [1], the pIC50 is 8.13.

In turn, `CNc1cccc2cc(C(=O)Nc3ccc(C(=O)NCC4CCNCC4)cc3)c(=O)[nH]c12.O=CO` [Example 47, 8-(methylamino)-2-oxo-N-(4-{[(piperidine-4-yl)methyl]carbamoyl}phenyl)-1,2-dihydroquinoline-3-carboxamide-formate] had an MIC against E. Coli ATCC 25922 above 32 µg/mL. On E. coli DNA gyrase [1], this compound gave a pIC50 of 7.97.

Turning to `CNc1cc(F)cc2cc(C(=O)NCCc3ccccc3)c(=O)[nH]c12` [Example 78, 6-fluoro-8-(methylamino)-2-oxo-N-(2-phenylethyl)-1,2-dihydroquinoline-3-carboxamide], the inhibition at 0.3 µM against E. coli DNA gyrase [1] (Method 1, at 300 nM) came out at 12%.

Regarding `CNc1cc(F)cc2cc(C(=O)NCCc3ccccn3)c(=O)[nH]c12` [Example 79, 6-fluoro-8-(methylamino)-2-oxo-N-[2-(pyridine-2-yl)ethyl]-1,2-dihydroquinoline-3-carboxamide], the pIC50 at E. coli DNA gyrase [1] (setting [4]) is 6.76.

On to `CNc1cc(F)cc2c(O)c(C(=O)Nc3ccc(C(=O)NS(=O)(=O)N(C)C)cc3CN3CCCCC3)c(=O)[nH]c12` [Example 164, N-{4-[(dimethyl-sulfamoyl)carbamoyl]-2-[(piperidine-1-yl)methyl]phenyl}-6-fluoro-4-hydroxy-8-(methylamino)-2-oxo-1,2-dihydroquinoline-3-carboxamide], for which the MIC with E. Coli ATCC 25922 worked out at 64 µg/mL (≈ 111 µM); in assay [3], 0.12 µg/mL (≈ 0.209 µM). The pIC50 on E. coli DNA gyrase [2] was 8.35.

Consider `Nc1cccc2cc(C(=O)Nc3cccc(C(=O)O)c3)c(=O)[nH]c12` [Example 165, 3-[(8-Amino-2-oxo-1,2-dihydroquinoline-3-carbonyl)amino]benzoic acid-trifluoroacetate], for which testing at 50 µM at E. coli DNA gyrase [1] (Method 1, at 50000 nM) gave an inhibition of 27%.

For the compound `O=C(O)c1ccc(NC(=O)c2cc3ccccc3[nH]c2=O)cc1` [Reference Example 1, 4-[(2-Oxo-1,2-dihydroquinoline-3-carbonyl)amino]benzoic Acid, reference compound], the MIC was above 64 µg/mL in the assay with E. Coli ATCC 25922 and above 1 µg/mL in assay [3]. Further, the pIC50 at E. coli DNA gyrase [2] was 5.15.

One may read the MIC as the lowest concentration found to suppress growth. A lower MIC goes with a more susceptible organism. Usually pIC50 stands for the IC50 on a negative log10 scale, so that one unit is a factor of ten. The term inhibition denotes the share of the control response that was lost under treatment. A lower inhibition goes with a weak effect.
